According to US20160074409A1, “Treatment of Skeletal-Related Disorders” (priority 2013, published 2016):

Test system: MDA-MB-231 breast carcinoma cells
Assay: Bone density in bone metastasis model (femoral and tibial X-ray densitometry)
Assay type: in vivo, Nude (rnu/rnu) female rats
Settings: metastatic bone cancer model, MDA-MB-231 cells injected into tibia; Group G5: 90 mg/kg BID PO, N=6; 6 weeks; FIG. 1
Procedure: Nude (rnu/rnu) female rats were obtained from Charles River (Wilmington, Mass.). The rats were pair-housed in polycarbonate micro-isolator cages lined with autoclaved bedding. Autoclaved reverse osmosis (RO) water and autoclaved standard rat chow were provided ad libitum. Body weights were recorded weekly throughout the course of the studies. Animals were maintained for 6 weeks and euthanized by carbon dioxide inhalation at the end of the experiment. The animals were randomized to study groups by body weight as follows: G1: vehicle BID PO (N=6), G2: 0.04 mg/kg zoledronate QWK IV (N=6), G5: 90 mg/kg Compound of Formula IV BID PO (N=6), and G6: No implantation (N=3).
MDA-MB-231 breast carcinoma cells were propagated by standard tissue culture methods in RPMI media containing 10% fetal bovine serum. Exponentially growing cells were trypsinized and resuspended in phosphate-buffered saline at a concentration of 2.5×10^7 cells/mi. Rats were maintained under isoflurane anesthesia during the tumor injection procedure. […]
Radiographs were taken with rats under general anaesthesia. […] Radiographs were scanned and analysed. […]
Femoral and tibial X-ray densitometry was performed. In brief, bones were X-rayed, the film was scanned and the electronic image then analysed by a real-colour image analysis system. Pixel density was then determined and used as a measure of disease progression.

CC#CC(=O)N1CCCC1c1nc(-c2ccc(C(=O)Nc3ccccn3)cc2)c2c(N)ncnn12 (stereo not shown) [Compound of Formula IV]
bone density (femoral and tibial X-ray densitometry, pixel density): inhibition of the decrease in bone density
